Source: publication PMC7979765, “trans-Translation inhibitors bind to a novel site on the ribosome and clear Neisseria gonorrhoeae in vivo” (Nature Communications, 2021)
Values after ≈ are worked out from the molar mass of the structure shown. Values joined by “and” are separate entries in the source; they are usually repeats but may differ in a detail not shown here. Equal values may be shown once. Read-outs that look alike come from different tables or passages of the source.

Key:
Escherichia coli = test: microbe, parasite or virus in culture; format: cell-based
Neisseria gonorrhoeae = test: MIC, microbroth dilution, G77L medium; format: cell-based

In the case of `O=C(Nc1nnc(-c2ccc(F)cc2)o1)N1CCc2ccccc2C1` [MBX-4132], the MIC (Escherichia coli; E. coli KLE701 (ΔtolC::tet), source data, individual replicates) is reported as 4.229 µg/mL (≈ 12.5 µM), the MIC (Escherichia coli; Escherichia coli KLE700, replicates) is reported as no less than 34 µg/mL and the MIC (Escherichia coli; Escherichia coli KLE701 (ΔtolC), replicates) is reported as 2.11 µg/ml (4×) and 4.23 µg/ml (2×). For the same molecule, the MIC (Escherichia coli; Escherichia coli, E. coli KLE701 (ΔtolC::tet), source data, individual replicates) was 2.11 µg/mL (≈ 6.25 µM), the MIC (Escherichia coli; Escherichia coli, Escherichia coli KLE700, replicates, read-out: MIC) was no less than 34 µg/mL and the MIC (Escherichia coli; Escherichia coli, strain KLE700, read-out: MIC) was no less than 34 µg/mL. The MIC (Escherichia coli; Escherichia coli, strain KLE701, KLE700 ΔtolC::tet) was 2.8 µg/mL (≈ 8.28 µM), the MIC (Neisseria gonorrhoeae; Neisseria gonorrhoeae ATCC 49226, source data, individual replicates) was 0.08459 µg/mL (≈ 0.25 µM) and the MIC (Neisseria gonorrhoeae; Neisseria gonorrhoeae, ATCC49226, Neisseria gonorrhoeae ATCC 49226, source data, individual replicates) was 0.169 µg/mL (≈ 0.5 µM). The MIC (Neisseria gonorrhoeae; Neisseria gonorrhoeae, ATCC49226, read-out: MIC GEOMEAN, strain ATCC 49226, geomean of replicates) was 0.134 µg/mL (≈ 0.396 µM), the MIC (Neisseria gonorrhoeae; Neisseria gonorrhoeae, ATCC49226, strain ATCC 49226, replicates 1-3) was 0.169 µg/mL (≈ 0.499 µM) and the MIC (Neisseria gonorrhoeae; Neisseria gonorrhoeae, ATCC49226, strain ATCC 49226, type strain) was 0.13 µg/mL (≈ 0.384 µM). It also gave an MIC (Neisseria gonorrhoeae; Neisseria gonorrhoeae, ATCC49226, strain MMX ATCC 49226, broth dilution by Micromyx) of 0.27 µg/mL (≈ 0.798 µM), an MIC (Neisseria gonorrhoeae; Neisseria gonorrhoeae, ATCC700719, read-out: MIC GEOMEAN, strain ATCC 700719, geomean of replicates) of 0.213 µg/mL (≈ 0.63 µM) and an MIC (Neisseria gonorrhoeae; Neisseria gonorrhoeae, ATCC700719, strain ATCC 700719, SPT) of 0.21 µg/mL (≈ 0.621 µM). For the same molecule, the MIC (Neisseria gonorrhoeae; Neisseria gonorrhoeae, ATCC700719, strain ATCC 700719, replicates 1-3) was 0.169 µg/mL (≈ 0.499 µM), the MIC (Neisseria gonorrhoeae; Neisseria gonorrhoeae, ATCC700825, read-out: MIC GEOMEAN, strain ATCC 700825, geomean of replicates) was 0.042 µg/mL (≈ 0.124 µM) and the MIC (Neisseria gonorrhoeae; Neisseria gonorrhoeae, ATCC700825, strain ATCC 700825, STR) was 0.04 µg/mL (≈ 0.118 µM). It also gave an MIC (Neisseria gonorrhoeae; Neisseria gonorrhoeae, ATCC700825, strain ATCC 700825, replicates 1-3) of 0.042 µg/mL (≈ 0.124 µM), an MIC (Neisseria gonorrhoeae; Neisseria gonorrhoeae, BAA1846, read-out: MIC GEOMEAN, strain BAA-1846, geomean of replicates) of 0.042 µg/mL (≈ 0.124 µM) and an MIC (Neisseria gonorrhoeae; Neisseria gonorrhoeae, BAA1846, strain BAA-1846, TET) of 0.04 µg/mL (≈ 0.118 µM). It also gave an MIC (Neisseria gonorrhoeae; Neisseria gonorrhoeae, BAA1846, strain BAA-1846, replicates 1-3) of 0.042 µg/mL (≈ 0.124 µM), an MIC90 (Neisseria gonorrhoeae; Neisseria gonorrhoeae, read-out: MIC90 (n)) of 0.53 µg/mL (≈ 1.57 µM) and an MIC (Neisseria gonorrhoeae; Neisseria gonorrhoeae, read-out: MIC GEOMEAN, strain CDC-0165, geomean of replicates) of 0.677 µg/mL (≈ 2 µM). It also gave an MIC (Neisseria gonorrhoeae; Neisseria gonorrhoeae, read-out: MIC GEOMEAN, strain CDC-0166, geomean of replicates) of 0.169 µg/mL (≈ 0.499 µM), an MIC (Neisseria gonorrhoeae; Neisseria gonorrhoeae, read-out: MIC GEOMEAN, strain CDC-0167, geomean of replicates) of 0.134 µg/mL (≈ 0.396 µM) and an MIC (Neisseria gonorrhoeae; Neisseria gonorrhoeae, read-out: MIC GEOMEAN, strain CDC-0169, geomean of replicates) of 0.169 µg/mL (≈ 0.499 µM). The MIC (Neisseria gonorrhoeae; Neisseria gonorrhoeae, read-out: MIC GEOMEAN, strain CDC-0170, geomean of replicates) was 0.169 µg/mL (≈ 0.499 µM), the MIC (Neisseria gonorrhoeae; Neisseria gonorrhoeae, read-out: MIC GEOMEAN, strain CDC-0171, geomean of replicates) was 0.169 µg/mL (≈ 0.499 µM) and the MIC (Neisseria gonorrhoeae; Neisseria gonorrhoeae, read-out: MIC GEOMEAN, strain CDC-0172, geomean of replicates) was 0.169 µg/mL (≈ 0.499 µM). It also gave an MIC (Neisseria gonorrhoeae; Neisseria gonorrhoeae, read-out: MIC GEOMEAN, strain CDC-0173, geomean of replicates) of 0.169 µg/mL (≈ 0.499 µM), an MIC (Neisseria gonorrhoeae; Neisseria gonorrhoeae, read-out: MIC GEOMEAN, strain CDC-0174, geomean of replicates) of 0.169 µg/mL (≈ 0.499 µM) and an MIC (Neisseria gonorrhoeae; Neisseria gonorrhoeae, read-out: MIC GEOMEAN, strain CDC-0175, geomean of replicates) of 0.085 µg/mL (≈ 0.251 µM). For the same molecule, the MIC (Neisseria gonorrhoeae; Neisseria gonorrhoeae, read-out: MIC GEOMEAN, strain CDC-0176, geomean of replicates) was 0.338 µg/mL (≈ 0.999 µM), the MIC (Neisseria gonorrhoeae; Neisseria gonorrhoeae, read-out: MIC GEOMEAN, strain CDC-0177, geomean of replicates) was 0.169 µg/mL (≈ 0.499 µM) and the MIC (Neisseria gonorrhoeae; Neisseria gonorrhoeae, read-out: MIC GEOMEAN, strain CDC-0178, geomean of replicates) was 0.338 µg/mL (≈ 0.999 µM). The MIC (Neisseria gonorrhoeae; Neisseria gonorrhoeae, read-out: MIC GEOMEAN, strain CDC-0179, geomean of replicates) was 0.085 µg/mL (≈ 0.251 µM), the MIC (Neisseria gonorrhoeae; Neisseria gonorrhoeae, read-out: MIC GEOMEAN, strain CDC-0180, geomean of replicates) was 0.169 µg/mL (≈ 0.499 µM) and the MIC (Neisseria gonorrhoeae; Neisseria gonorrhoeae, read-out: MIC GEOMEAN, strain CDC-0181, geomean of replicates) was 0.169 µg/mL (≈ 0.499 µM). It also gave an MIC (Neisseria gonorrhoeae; Neisseria gonorrhoeae, read-out: MIC GEOMEAN, strain CDC-0182, geomean of replicates) of 0.169 µg/mL (≈ 0.499 µM), an MIC (Neisseria gonorrhoeae; Neisseria gonorrhoeae, read-out: MIC GEOMEAN, strain CDC-0183, geomean of replicates) of 0.338 µg/mL (≈ 0.999 µM) and an MIC (Neisseria gonorrhoeae; Neisseria gonorrhoeae, read-out: MIC GEOMEAN, strain CDC-0184, geomean of replicates) of 0.169 µg/mL (≈ 0.499 µM). For the same molecule, the MIC (Neisseria gonorrhoeae; Neisseria gonorrhoeae, read-out: MIC GEOMEAN, strain CDC-0185, geomean of replicates) was 0.269 µg/mL (≈ 0.795 µM), the MIC (Neisseria gonorrhoeae; Neisseria gonorrhoeae, read-out: MIC GEOMEAN, strain CDC-0186, geomean of replicates) was 0.169 µg/mL (≈ 0.499 µM) and the MIC (Neisseria gonorrhoeae; Neisseria gonorrhoeae, read-out: MIC GEOMEAN, strain CDC-0187, geomean of replicates) was 0.338 µg/mL (≈ 0.999 µM). The MIC (Neisseria gonorrhoeae; Neisseria gonorrhoeae, read-out: MIC GEOMEAN, strain CDC-0188, geomean of replicates) was 0.169 µg/mL (≈ 0.499 µM), the MIC (Neisseria gonorrhoeae; Neisseria gonorrhoeae, read-out: MIC GEOMEAN, strain CDC-0189, geomean of replicates) was 0.134 µg/mL (≈ 0.396 µM) and the MIC (Neisseria gonorrhoeae; Neisseria gonorrhoeae, read-out: MIC GEOMEAN, strain CDC-0190, geomean of replicates) was 0.169 µg/mL (≈ 0.499 µM). It also gave an MIC (Neisseria gonorrhoeae; Neisseria gonorrhoeae, read-out: MIC GEOMEAN, strain HO41, geomean of replicates) of 0.169 µg/mL (≈ 0.499 µM), an MIC (Neisseria gonorrhoeae; Neisseria gonorrhoeae, read-out: MIC GEOMEAN, strain WHO F, geomean of replicates) of 0.066 µg/mL (≈ 0.195 µM) and an MIC (Neisseria gonorrhoeae; Neisseria gonorrhoeae, read-out: MIC GEOMEAN, strain WHO G, geomean of replicates) of 0.132 µg/mL (≈ 0.39 µM). It also gave an MIC (Neisseria gonorrhoeae; Neisseria gonorrhoeae, read-out: MIC GEOMEAN, strain WHO K, geomean of replicates) of 0.264 µg/mL (≈ 0.78 µM) and an MIC (Neisseria gonorrhoeae; Neisseria gonorrhoeae, read-out: MIC GEOMEAN, strain WHO L, geomean of replicates) of 0.264 µg/mL (≈ 0.78 µM).
